Measured values published in patent US20160113904A1, “SKIN CARE PRODUCTS COMPRISING SUBSTITUTED HYDROXYPROLINE WITH UNSATURATED FATTY ACIDS DERIVATIVES” (MEDWELL LABORATORIES LTD., priority 2013, published 2016).
Entries after “also recorded” stand apart in the source; their conditions may differ.

Columns and labels:
Format in all cases: in vivo, human
[1] = test system: volunteers with Atopic dermatitis; assay: Atopic dermatitis trial: study director's evaluation of skin condition
Description: In Examples 1-3 an emulsion type O/W Creams of MWL-001 (2.5% and 5% w/w) was prepared using Emulgade® SE emulsifiers (glyceryl stearate), Ceteareth-20, cetearyl alcohol, cetyl palmitate, cetearyl alcohol-Lanette®, isopropyl myristate, caprilic/capric acid triglycerides (Myritol®318), strearic acid, a Trietanolamine and purified water, according to Ph Eur 6.0.
(§1) Ten volunteers aged 2-30 years participated in the trial. Four females and six males.
(§2) Volunteers were instructed to apply the product only on one side of the body, on the worst affected area, while the other side was defined as the control area and was not treated. The tested material, a body lotion product, was applied 1-3 times a day for a period of 4 weeks.
Each volunteer was examined at baseline (T0), after one week (T1) and after 2 weeks of using the product (T2). The investigator rated the condition of the skin according to the parameters of the size of the affected area, dryness, scale, redness, edema, lichenification and pruritus. Both the treated and the Control areas were documented with color photographs at T0, T1 and T2.
The following parameters were evaluated: • a. Lesion area • b. Dryness • c. Scales • d. Redness • e. Edema • f. Lichenificalion
The parameters mentioned above were evaluated on a scale of 0 to 5 by the study director. • 0=None • 1=Slight • 2=Moderate • 3=Severe • 4=Extreme • 5=Very Extreme
(§3) A statistical comparison between T0 and the other two time-points (T1 and T2) and between the treated and the Control areas were made according to the Wilcoxon signed-ranks test, while p<0.05 indicated a significant difference
All parameters were assessed in a scale of 0-5 where 0=none and 5=very extreme. The percentage of change was calculated at T1 and T2.

[2] = test system: healthy female volunteers; assay: Anti wrinkle test: side effects; conditions: facial use for 4 weeks
Description: Volunteers were asked to report side effects, such as dryness, burning sensation, peeling of the skin, redness, etc. immediately to the study director.

[3] = test system: volunteers with Atopic dermatitis; assay: Atopic dermatitis trial: hydration level by Corneometer; conditions: for Change in hydration level / Hydration level: treated area; for Hydration level: Corneometer
Description: as §1, §2
Hydration level was evaluated by Comeometer CM 825, Courage & Khazaka, CK. The probe of the Corneometer was placed on the skin at a constant pressure and measurements of skin hydration were taken. Skin hydration was recorded at baseline, after 1 week and after 2 weeks of treatment. Room temperature and humidity were kept constant.
as §3

[4] = test system: volunteers with Atopic dermatitis; assay: Atopic dermatitis trial: side effects; conditions: topical product use
Description: The participants were asked to keep a record of the daily applications in a diary and to note any side effects resulting from the product application.
In addition to keeping records of side effects, volunteers were asked to immediately report any side effects, such as dryness, burning sensation, peeling of the skin, redness, etc. to 1SR.

[5] = test system: healthy female volunteers, crow's feet area around the eyes; assay: Anti wrinkle test: silicone imprints, skin roughness
Description: Ten healthy female volunteers were included and completed the study.
Silicon imprints were taken from the crow's feet area around the eyes at both treated and control sides at each time point.
A cosmetic anti wrinkle product MW-001 was applied on half of the face for four weeks by each volunteer while the other half served as a control, without any product application during the whole test period.
A computer program draws a realistic density three-dimensional image of the relief of the skin on a colour screen for a particular density of points selected for x and y axes and then the measurements data stored in the computer are processed and then evaluated.
This analysis consists of the following steps:
1. Generation of a roughness profile from the surface relief by alignment and filtering. 2. Calculation of standardized roughness parameters DIN 4768 ff). […].
A statistical comparison between the results at T0 and at T1 was made according to the Wilcoxon signed-ranks test, a very sensitive paired-samples non-parametric test for small groups with unknown distribution, where p<0.05 indicates a significant difference. The software used was SPSS 14.

[6] = test system: volunteers with Atopic dermatitis; assay: Atopic dermatitis trial: subjective pruritus intensity; conditions: for Change in Pruritus level / Pruritus level: treated area; for Pruritus level: scale 0-5
Description: as §1, §2
The volunteers were asked to assess the pruritus intensity on a 0-5 scale at T0, T1 and T2. • 0=None • 1=Slight • 2=Moderate • 3=Severe • 4=Extreme • 5=Very Extreme
as §3

[7] = after 1 and 2 weeks of treatment, only at the treated area
[8] = after 2 weeks of treatment, both sides
[9] = treated area, T0 baseline, scale 0-5
[10] = treated area, T1 after one week, scale 0-5
[11] = treated area, T2 after two weeks, scale 0-5
[12] = treated area, after 1 week of treatment

CCC=CCC=CCC=CCC=CCC=CCC=CCCC(=O)N1CC(O)CC1C(=O)O (stereo in doubt) [MW-001]
Scale level, statistical analysis of change [1, 7]: decreased significantly
Dryness level, statistical analysis of change [1, 8]: decreased significantly
Redness level, statistical analysis of change [1, 8]: decreased significantly
Lichenification level, statistical analysis of change ([1]; after 2 weeks of treatment, only at the treated area): decreased significantly
Overall efficacy conclusion ([1]; atopic dermatitis): very efficient in the treatment of atopic dermatitis
Dryness level [1, 9]: 4.1
Lichenification level [1, 9]: 2.8
Redness level [1, 9]: 3.9
Scale level [1, 9]: 2.6
Infected area size ([1]; treated area, T0 baseline, scale 0-5, 10 volunteers): 4.3
Dryness level [1, 10]: 1.8
Infected area size [1, 10]: 3.2
Lichenification level [1, 10]: 2.0
Redness level [1, 10]: 2.4
Scale level [1, 10]: 1.3
Dryness level [1, 11]: 1.1
Infected area size [1, 11]: 2.2
Lichenification level [1, 11]: 1.3
Redness level [1, 11]: 2.3
Scale level [1, 11]: 0.9
Dryness level, statistical analysis of change [1, 12]: decreased significantly
Redness level, statistical analysis of change [1, 12]: decreased significantly
Infected area size, statistical analysis of change ([1]; treated area, after 2 weeks of treatment, p<0.05, Wilcoxon): diminished significantly
Side effects / safety [2]: None of the volunteers reported of any side effects; also recorded: safe for use
Hydration level, statistical analysis of change ([3]; any of the sides): no significant change
Change in hydration level ([3]; Baseline): 100%
Hydration level ([3]; T0 baseline): 21.1
Hydration level ([3]; T1 after one week): 30.7
Hydration level ([3]; T2 after two weeks): 27.8
Change in hydration level ([3]; Week 1, relative to baseline): 146%
Change in hydration level ([3]; Week 2, relative to baseline): 132%
Side effects / safety [4]: None of the participants had side effects; also recorded: safe for use
Overall efficacy conclusion ([5]; rough and wrinkled skin): efficient for the treatment of rough and wrinkled skin
Decrease of skin roughness ([5]; treated area, before versus after 2 weeks of use): 10.8%
Decrease of skin roughness ([5]; treated area, before versus after 4 weeks of use): 19.5%
Skin roughness improvement, statistical analysis ([5]; treated area, both T1 and T2, p<0.05): significant
Pruritus level, statistical analysis of change [6, 7]: decreased significantly
Change in Pruritus level ([6]; Baseline): 100%
Pruritus level ([6]; T0 baseline): 3.4
Pruritus level ([6]; T1 after one week): 1.4
Pruritus level ([6]; T2 after two weeks): 0.9
Change in Pruritus level ([6]; Week 1, relative to baseline): 41%
Change in Pruritus level ([6]; Week 2, relative to baseline): 26%
